Laboratory results published in a melting point compilation (Tetko et al.; mined from patent text by program, amines drawn as free bases though some values may be those of a salt).

Row | Structure (SMILES) | melting point [°C]
1 | Cc1cccc(C(=O)c2[nH]c3cc(Cl)ccc3c2NC(N)=O)c1 | > 280
2 | COc1ccc2c(c1)C(=O)C1=NCCCN12 | 152
3 | C(#Cc1cnc(-c2cccs2)s1)c1ccccc1 | 94 to 96
4 | CC(C)(CO)CCNC(=O)OC(C)(C)C | 75.5 to 76.5
5 | O=C(O)c1cc2cc(C(F)(F)F)cnc2n1Cc1ccncc1 | 302 to 303
6 | COC(=O)c1sccc1NC(=O)CC#N | 146
7 | Fc1ccc2c(C3CCN(CCc4ccccc4)CC3)n[nH]c2c1 | 163 to 165
8 | CCOC(=O)c1cc2c(C)c(F)ccc2[nH]1 | 148 to 149
9 | CCOC(=O)C(CCc1ccccc1)NC(CCCCNC(=O)CNC(=O)OC(C)(C)C)C(=O)O (stereo unspecified) | 137
10 | COc1ccc([N+](=O)[O-])c(C=C[N+](=O)[O-])c1OCc1ccccc1 | 118 to 119
11 | O=C1c2ccccc2C(O)N1CCCBr (stereo unspecified) | 79
12 | O=C(O)COCC(=O)N1CCC(C(c2ccccc2)c2ccccc2)CC1 | 140 to 141
13 | N#Cc1ccc2c(c1)CC[C@@H](c1ccc(F)cc1)[C@H]2Cn1cncn1 (relative stereo) | 149
14 | CN(C(=O)OC(C)(C)C)c1cc(Oc2ccc(-c3nnn(C(c4ccccc4)(c4ccccc4)c4ccccc4)n3)cc2)ccc1N | 192 to 193
15 | Cc1cc(N)c([N+](=O)[O-])cc1NCC(O)CO (stereo unspecified) | 150
16 | Cc1ccc2c(=O)c(S(=O)(=O)Cl)cn(C)c2c1 | > 300
17 | COC(=O)[C@@H]1C[C@H](N=[N+]=[N-])C(=O)[C@H]2[C@@]1(C)CC[C@H]1C(=O)O[C@H](c3ccoc3)C[C@]21C | 200 to 203
18 | CCCCCCCCCCCCCCCCCCC1CNc2ccc(C(=O)O)cc21 (racemic) | 84 to 87
19 | CSCc1c(N)c(C#N)cc(F)c1F | 109 to 110
20 | CC(=O)c1ccc(-c2ccnc(Nc3ccc4c(c3)OCCO4)c2)cc1 | 178 to 180
21 | O=C(O)C(=O)CC(=O)c1cccn1Cc1ccccc1F | 155 to 156
22 | Cc1cnc(C(=O)NCCO[N+](=O)[O-])s1 | 110 to 112
23 | CCCc1nc2c(N)nc(Cl)c(C)c2n1CCOCCN | 158 to 161
24 | O=C1c2ccc(O)cc2CCN1CCN1CCCC1 | 205 to 207
25 | N#Cc1cn(-c2c(Cl)cc(C(F)(F)F)cc2Cl)nc1F | 120 to 121
26 | FC(F)(F)/C(=C(\c1ccccc1)c1ccc(OCCN2CCOCC2)cc1)c1ccccc1 | 84 to 89

Row | Structure (SMILES) | melting point [°C]
27 | CCCCCCCCN(Cc1ccc(CN(CCCCCCCC)OC(=O)c2ccccc2)cc1)OC(=O)c1ccccc1 | 80 to 81
28 | Cn1c2ccccc2c2c3ccccc3ccc21 | 116 to 118
29 | CCCCOC(=O)c1ccc(CN2CCCN3CCCC32)cc1 (stereo unspecified) | 64 to 67
30 | OC(CCn1ccnc1)(c1ccccc1)c1ccc2sc3ccccc3c2c1 (stereo unspecified) | 88 to 91
31 | CCOCCN(CCOCC)C(=O)c1n[nH]c2c(=O)[nH]c3cc(Cl)ccc3c(=O)c12 | 202
32 | COc1cc2c(cc1OCC(=O)O)C1Cc3c(Cl)cc(OC)c(OCC(=O)O)c3CN1CC2 (stereo unspecified) | 202 to 204
33 | CCCOc1ccc2nc(NC(=O)OCC)sc2c1 | 175 to 177
34 | Cc1cnc2sc(SCc3ccccc3)nn2c1=O | 130 to 132
35 | O=C(Nc1ccccc1)N1CC2CC(CN(Cc3ccc(Cl)cc3)C2)C1 | 187
36 | CCCCCCCCCCCCOC(CCCCCCCCCCCC)COCC(O)COc1ccc(N2CCOCC2)cc1 (stereo unspecified) | 49 to 52
37 | CCn1nc(OCCCc2ccc(OC(C)C)cc2OCc2ccc(Cl)cc2Cl)cc1CCC(=O)O | 110 to 111
38 | CCOc1ccc(-c2c(Cl)ncn2-c2ccc(S(=O)(=O)NC(C)(C)C)cc2)cc1 | 189
39 | C=CCOC(=O)Nc1nsc(N)n1 | 159 to 161
40 | CCC(C(=O)N(C)C)n1cc(C(C)C)c(-c2ccccc2)n1 (stereo unspecified) | 89 to 90
41 | O=C1C(CCO)Oc2cc(F)ccc2N1Cc1cccc(F)c1 (stereo unspecified) | 78 to 79
42 | Cc1nnc(COc2ccc(OCC(C)Oc3ccccn3)cc2)s1 (stereo unspecified) | 72 to 78
43 | CN(C(=O)CN(O)C(N)=O)c1cccc(Oc2ccccc2)c1 | 110 to 112
44 | COc1ccc(N2CCN(c3c(C)c(C)c4c(c3C)C(O)(c3ccc(N(C)C)cc3)C(C)(C)O4)CC2)cc1 (stereo unspecified) | 144 to 146
45 | CCC(=O)Cc1cc2cc(OCCNC[C@H](O)COc3ccccc3)ccc2o1 | 99 to 100
46 | CCc1nn(Cc2cccnn2)c2c(=O)[nH]c(-c3cc(S(C)(=O)=O)ccc3OCC(C)C)nc12 | 231 to 234
47 | O=[N+]([O-])c1ccc(C(Cl)(Cl)Br)cc1 | 51.3 to 52.9
48 | CC1(c2ccccc2)OC(C=Cc2ccccn2)=CC1=O (stereo unspecified) | 74.5 to 76
49 | CCNc1cc(Oc2cccc(C(F)(F)F)c2)nc(C(=O)NN=CC(F)(F)C(F)(F)F)c1 | 101 to 102
50 | CSC1Oc2cccc3cccc(c23)C1=O (stereo unspecified) | 89 to 91
51 | CNC(=O)CN1CCc2cc(Nc3ncc(Cl)c(Nc4ccccc4OC)n3)c(OC)cc2CC1 | 81 to 95
